Test results as given in PubChem BioAssay AID852 (PCMD, 2007).

target: Coagulation factor XII (Homo sapiens) (UniProt P00748); test: human FXIIa protease inhibitors, dose response, biochemical, confirmation of 1536-well hits (AID 852); settings: purified human plasma FXIIa, fluorogenic AMC substrate, 384-well, 2 h
Sequence (P00748 20-372 limits assumed): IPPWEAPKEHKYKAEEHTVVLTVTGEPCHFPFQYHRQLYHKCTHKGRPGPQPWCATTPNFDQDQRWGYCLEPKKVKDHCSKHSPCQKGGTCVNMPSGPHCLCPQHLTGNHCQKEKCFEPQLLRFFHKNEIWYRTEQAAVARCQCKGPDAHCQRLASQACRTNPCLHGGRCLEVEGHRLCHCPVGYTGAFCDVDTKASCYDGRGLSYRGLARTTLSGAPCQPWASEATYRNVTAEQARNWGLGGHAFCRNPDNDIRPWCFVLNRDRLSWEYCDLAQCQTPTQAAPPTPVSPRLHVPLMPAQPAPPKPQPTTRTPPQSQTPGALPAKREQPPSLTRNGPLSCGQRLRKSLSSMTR
Sequence (P00748 373-615 limits assumed): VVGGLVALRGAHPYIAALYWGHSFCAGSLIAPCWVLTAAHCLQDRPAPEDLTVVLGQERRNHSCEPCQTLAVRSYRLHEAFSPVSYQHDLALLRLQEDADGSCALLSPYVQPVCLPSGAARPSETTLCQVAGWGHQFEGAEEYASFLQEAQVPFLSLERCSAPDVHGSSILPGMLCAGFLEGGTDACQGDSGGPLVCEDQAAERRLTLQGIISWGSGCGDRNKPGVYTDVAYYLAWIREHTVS

Row | SMILES | IC50 [µM]
1 | O=C(Oc1ccc(Cl)c2cccnc12)c1ccco1 | 21.6
2 | O=C(Oc1ccc2c3c(c(=O)oc2c1)CCC3)c1ccco1 | 6.22
3 | Cc1ccc(C(=O)n2nc(-c3cccnc3)nc2N)cc1 | 0.796
